Read-outs that look alike come from different tables or passages of the source.

For this assay, the target named is CSF1R (Homo sapiens, UniProt P07333). Description: KINOMEscan competition binding assay for CSF1R. More on the design: DNA tag for qPCR (not a peptide); host or cells: E. coli/T7 phage or HEK-293. The essentials: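 Values are either % inhibition at 0.1 uM, relative to DMSO (100% Ctrl) and a control compound (0% Ctrl), or Kd from an 11-point 3-fold series fitted with Hill slope −1. DNA-tagged kinase binds immobilized ligand beads with compound for 1 h at room temperature, and eluted kinase is measured by qPCR.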
Chain of CSF1R (P07333 20-972): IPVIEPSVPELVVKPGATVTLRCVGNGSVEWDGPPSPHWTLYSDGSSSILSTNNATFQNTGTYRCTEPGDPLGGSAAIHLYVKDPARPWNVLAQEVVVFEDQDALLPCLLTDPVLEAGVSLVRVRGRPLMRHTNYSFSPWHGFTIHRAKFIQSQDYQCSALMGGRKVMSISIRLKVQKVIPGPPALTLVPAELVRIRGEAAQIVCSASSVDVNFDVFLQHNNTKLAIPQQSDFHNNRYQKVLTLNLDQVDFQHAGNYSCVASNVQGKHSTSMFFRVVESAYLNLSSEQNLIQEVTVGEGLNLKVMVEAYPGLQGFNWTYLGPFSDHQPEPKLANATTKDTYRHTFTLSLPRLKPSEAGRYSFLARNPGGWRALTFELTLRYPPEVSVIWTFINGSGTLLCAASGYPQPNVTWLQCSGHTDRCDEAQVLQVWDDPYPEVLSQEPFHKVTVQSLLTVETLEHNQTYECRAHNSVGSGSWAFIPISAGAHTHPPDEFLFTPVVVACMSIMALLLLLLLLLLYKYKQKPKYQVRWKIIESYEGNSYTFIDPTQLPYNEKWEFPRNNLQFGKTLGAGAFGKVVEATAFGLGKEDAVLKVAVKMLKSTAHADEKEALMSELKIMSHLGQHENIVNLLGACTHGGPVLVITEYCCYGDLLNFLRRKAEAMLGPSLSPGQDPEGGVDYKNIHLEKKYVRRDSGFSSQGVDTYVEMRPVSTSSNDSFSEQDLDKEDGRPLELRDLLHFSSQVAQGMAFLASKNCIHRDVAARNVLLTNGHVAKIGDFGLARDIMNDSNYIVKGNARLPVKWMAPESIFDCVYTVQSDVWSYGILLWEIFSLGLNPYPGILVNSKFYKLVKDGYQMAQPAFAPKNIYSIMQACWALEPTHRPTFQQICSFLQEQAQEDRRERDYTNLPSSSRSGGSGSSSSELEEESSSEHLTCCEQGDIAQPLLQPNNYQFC

Where [1] appears, read: read-out: CSF1R kinase binding activity, Percent (%) inhibition.
Where [2] appears, read: read-out: CSF1R kinase binding activity, Range.

The Kd is the concentration at which binding is half-saturated. In the case of `COc1cc2nccc(Oc3ccc(NC(=O)c4nn(C5CC5)cc4OCC(F)(F)F)nc3)c2cc1OC` [Compound 5], the inhibition at 0.1 µM runs as follows: under setting [1], 97%; under setting [2], at least 80%. Besides, for the setting “read-out: CSF1R kinase binding activity (Kd)”, the Kd is below 0.1 µM.
For `COc1cc2nccc(Oc3ccc(NC(=O)c4nn(C5CCOC5)cc4OCC(F)(F)F)c(F)c3)c2cc1OC` (stereo not drawn) [Compound 77], the inhibition at 0.1 µM runs as follows: under setting [1], 76%; under setting [2], 50 to 80%.
For `COc1cc2nccc(Oc3ccc(NC(=O)c4nn(C5CCNC5)cc4OCC(F)(F)F)cc3F)c2cc1OC` (stereo not drawn) [Compound 78], the inhibition at 0.1 µM was 11% under setting [1] and below 50% under setting [2].
Taken in the same sequence, the figures for `COc1cc2nccc(Oc3ccc(NC(=O)c4nn(CCN)cc4OCC(F)(F)F)cc3F)c2cc1OC` [Compound 79] were 12% and below 50%.
Taken in the same sequence, the figures for `COc1cc2nccc(Oc3ccc(NC(=O)c4nn(CC(C)O)cc4OCC(F)(F)F)cc3F)c2cc1OC` (stereo not drawn) [Compound 80] were 64% and 50 to 80%.
Taken in the same sequence, the figures for `COc1cc2nccc(Oc3ccc(NC(=O)c4nn(C5CCNC5)cc4OCC(F)(F)F)cc3C)c2cc1OC` (stereo not drawn) [Compound 81] were 46% and below 50%.
With `COc1cc2nccc(Oc3ccc(NC(=O)c4nn(CCN)cc4OCC(F)(F)F)cc3C)c2cc1OC` [Compound 82], the inhibition at 0.1 µM under setting [1] worked out at 35% and the inhibition at 0.1 µM under setting [2] was below 50%.
For `COc1cc2nccc(Oc3ccc(NC(=O)c4nn(CC(C)O)cc4OCC(F)(F)F)cc3C)c2cc1OC` (stereo not drawn) [Compound 83] the same measures were 97% and at least 80%.
As to `COCCn1cc(OCC(F)(F)F)c(C(=O)Nc2ccc(Oc3ccnc4cc(OC)c(OC)cc34)c(C)c2)n1` [Compound 84], the inhibition at 0.1 µM by setting is: under setting [1], 97%; under setting [2], at least 80%.
For the compound `COc1cc2nccc(Oc3ccc(NC(=O)c4nn(C5CCOC5)cc4OCC(F)(F)F)cc3C)c2cc1OC` (stereo not drawn) [Compound 85], the inhibition at 0.1 µM is, setting by setting: under setting [1], 78%; under setting [2], 50 to 80%.
Taken in the same sequence, the figures for `COc1cc2nccc(Oc3ccc(NC(=O)c4nn(C5CCNC5)cc4OCC(F)(F)F)cc3)c2cc1OC` (stereo not drawn) [Compound 86] were 11% and below 50%.
Taken in the same sequence, the figures for `COc1cc2nccc(Oc3ccc(NC(=O)c4nn(CC(C)C)cc4OCC(F)(F)F)cc3)c2cc1OC` [Compound 87] were 71% and 50 to 80%.
Taken in the same sequence, the figures for `COc1cc2nccc(Oc3ccc(NC(=O)c4nn(CCN)cc4OCC(F)(F)F)cc3)c2cc1OC` [Compound 88] were 21% and below 50%.
For the compound `COc1cc2nccc(Oc3ccc(NC(=O)c4nn(CC(C)O)cc4OCC(F)(F)F)cc3)c2cc1OC` (stereo not drawn) [Compound 89], the inhibition at 0.1 µM under setting [1] was 56% and the inhibition at 0.1 µM under setting [2] is 50 to 80%.
As to `COc1cc2nccc(Oc3ccc(NC(=O)c4nn(C5CCOCC5)cc4OCC(F)(F)F)nc3)c2cc1OC` [Compound 90], the inhibition at 0.1 µM is 95% under setting [1] and at least 80% under setting [2].
For `COc1cc2nccc(Oc3ccc(NC(=O)c4nn(C5CCN(C)C5)cc4OCC(F)(F)F)nc3)c2cc1OC` (stereo not drawn) [Compound 91] the same measures were 99% and at least 80%.
As to `COc1cc2nccc(Oc3ccc(NC(=O)c4nn(CCC5CCCC5)cc4OCC(F)(F)F)nc3)c2cc1OC` [Compound 93], the inhibition at 0.1 µM was 89% under setting [1] and at least 80% under setting [2].
Regarding `COc1cc2nccc(Oc3ccc(NC(=O)c4nn(C5CCN(C)C5)cc4OCC(F)(F)F)c(F)c3)c2cc1OC` (stereo not drawn) [Compound 94], the inhibition at 0.1 µM runs as follows: under setting [1], 65%; under setting [2], 50 to 80%.
For `COc1cc2nccc(Oc3ccc(NC(=O)c4nn(CC5COC5)cc4OCC(F)(F)F)c(F)c3)c2cc1OC` [Compound 95], the inhibition at 0.1 µM runs as follows: under setting [1], 61%; under setting [2], 50 to 80%.

The record behind these values is patent publication US12162858B2, “Quinoline derivatives as inhibitors of AXL/MER RTK and CSF1R” (QURIENT CO., LTD., priority 2018, dated 2024).
